Converted amounts (≈) assume the structure as drawn.
Tests used:
Assay type in all cases: cell-based
M. morganii DY-1 = assay: MIC by agar dilution, M. morganii DY-1; details: Morganella morganii, DY1, 17 h; M. morganii DY-1; agar dilution, Mueller-Hinton agar; read-out: Minimal Inhibitory Concentration (MIC)
Description: (§1) These MIC values were determined by agar dilution method: that is, two-fold dilutions of each of the test compounds were made and dispersed in a Mueller-Hinton agar medium; standard test strain which had the 10^6 CFU (Colony Forming Unit) per ml was inoculated on the medium with microplanter (Toyo, Japan), and incubated at 35°-37° C. for 17±1 hours. The structures of Ceftazidime (CAZ) and Cefotaxime (CTX) which are used as control compounds are as follows: [drawing 12]

Staph. aureus C-5113 = assay: MIC by agar dilution, Staph. aureus C-5113; details: Staphylococcus aureus, C5113, 17 h, Mueller-Hinton agar, read-out: Minimal Inhibitory Concentration (MIC)
Description: as §1

K. pneumoniae NCTC 9632 = assay: MIC by agar dilution, K. pneumoniae NCTC 9632; details: Klebsiella pneumoniae, NCTC9632, 17 h; K. pneumoniae NCTC 9632; agar dilution, Mueller-Hinton agar; read-out: Minimal Inhibitory Concentration (MIC)
Description: as §1

Staph. aureus Smith = assay: MIC by agar dilution, Staph. aureus Smith; details: Staphylococcus aureus, 17 h, Mueller-Hinton agar, read-out: Minimal Inhibitory Concentration (MIC)
Description: as §1

[1] = tested on: Ps. aeruginosa NCTC 10490; assay: MIC by agar dilution, Ps. aeruginosa NCTC 10490; details: Pseudomonas aeruginosa, NCTC10490, 17 h, Mueller-Hinton agar, read-out: Minimal Inhibitory Concentration (MIC)
Description: as §1

Prov. stuartii IFO 12930 = assay: MIC by agar dilution, Prov. stuartii IFO 12930; details: Providencia stuartii, IFO12930, 17 h, Mueller-Hinton agar, read-out: Minimal Inhibitory Concentration (MIC)
Description: as §1

Staph. aureus C-5216 = assay: MIC by agar dilution, Staph. aureus C-5216; details: Staphylococcus aureus, C5216, 17 h, Mueller-Hinton agar, read-out: Minimal Inhibitory Concentration (MIC)
Description: as §1

[2] = tested on: Ser. marcescens IFO 12648; assay: MIC by agar dilution, Ser. marcescens IFO 12648; details: Serratia marcescens, IFO12648, 17 h; Ser. marcescens IFO 12648; agar dilution, Mueller-Hinton agar; read-out: Minimal Inhibitory Concentration (MIC)
Description: as §1

P. vulgaris NCTC 8313 = assay: MIC by agar dilution, P. vulgaris NCTC 8313; details: Proteus vulgaris, NCTC8313, 17 h; P. vulgaris NCTC 8313; agar dilution, Mueller-Hinton agar; read-out: Minimal Inhibitory Concentration (MIC)
Description: as §1

Ps. aeruginosa DY-2 = assay: MIC by agar dilution, Ps. aeruginosa DY-2; details: Pseudomonas aeruginosa, DY2, 17 h; Ps. aeruginosa DY-2; agar dilution, Mueller-Hinton agar; read-out: Minimal Inhibitory Concentration (MIC)
Description: as §1

[3] = tested on: S. epidermidis ATCC 12228; assay: MIC by agar dilution, S. epidermidis ATCC 12228; details: Staphylococcus epidermidis, ATCC12228, 17 h; S. epidermidis ATCC 12228; agar dilution, Mueller-Hinton agar; read-out: Minimal Inhibitory Concentration (MIC)
Description: as §1

E. coli DY-1 = assay: MIC by agar dilution, E. coli DY-1; details: Escherichia coli, DY1, 17 h; E. coli DY-1; agar dilution, Mueller-Hinton agar; read-out: Minimal Inhibitory Concentration (MIC)
Description: as §1

Staph. aureus C-57 = assay: MIC by agar dilution, Staph. aureus C-57; details: Staphylococcus aureus, C57, 17 h, Mueller-Hinton agar, read-out: Minimal Inhibitory Concentration (MIC)
Description: as §1

Staph. aureus ATCC 6538P = assay: MIC by agar dilution, Staph. aureus ATCC 6538P; details: Staphylococcus aureus, ATCC6538P, 17 h; Staph. aureus ATCC 6538P; agar dilution, Mueller-Hinton agar; read-out: Minimal Inhibitory Concentration (MIC)
Description: as §1

E. coli No. 29 = assay: MIC by agar dilution, E. coli No. 29; details: Escherichia coli, 17 h; E. coli No. 29; agar dilution, Mueller-Hinton agar; read-out: Minimal Inhibitory Concentration (MIC)
Description: as §1

E. coli NIHJ JC-2 = assay: MIC by agar dilution, E. coli NIHJ JC-2; details: Escherichia coli, NIHJJC2, 17 h; E. coli NIHJ JC-2; agar dilution, Mueller-Hinton agar; read-out: Minimal Inhibitory Concentration (MIC)
Description: as §1

B. subtilis ATCC 6633 = assay: MIC by agar dilution, B. subtilis ATCC 6633; details: Bacillus subtilis, ATCC6633, 17 h; B. subtilis ATCC 6633; agar dilution, Mueller-Hinton agar; read-out: Minimal Inhibitory Concentration (MIC)
Description: as §1

[4] = tested on: Ps. aeruginosa ATCC 10145; assay: MIC by agar dilution, Ps. aeruginosa ATCC 10145; details: Pseudomonas aeruginosa, ATCC10145, 17 h, Mueller-Hinton agar, read-out: Minimal Inhibitory Concentration (MIC)
Description: as §1

Ent. aerogenes IFO 12979 = assay: MIC by agar dilution, Ent. aerogenes IFO 12979; details: Klebsiella aerogenes, IFO12979, 17 h, Mueller-Hinton agar, read-out: Minimal Inhibitory Concentration (MIC)
Description: as §1

Ent. cloacae IFO 13535 = assay: MIC by agar dilution, Ent. cloacae IFO 13535; details: Enterobacter cloacae, IFO13535, 17 h; Ent. cloacae IFO 13535; agar dilution, Mueller-Hinton agar; read-out: Minimal Inhibitory Concentration (MIC)
Description: as §1

MIC (M. morganii DY-1) [µg/mL]	MIC (Staph. aureus C-5113) [µg/mL]	MIC (K. pneumoniae NCTC 9632) [µg/mL]	MIC (Staph. aureus Smith) [µg/mL]	MIC [1] [µg/mL]	MIC (Prov. stuartii IFO 12930) [µg/mL]	MIC (Staph. aureus C-5216) [µg/mL]	MIC [2] [µg/mL]	MIC (P. vulgaris NCTC 8313) [µg/mL]	MIC (Ps. aeruginosa DY-2) [µg/mL]	MIC [3] [µg/mL]	MIC (E. coli DY-1) [µg/mL]	MIC (Staph. aureus C-57) [µg/mL]	MIC (Staph. aureus ATCC 6538P) [µg/mL]	MIC (E. coli No. 29) [µg/mL]	MIC (E. coli NIHJ JC-2) [µg/mL]	MIC (B. subtilis ATCC 6633) [µg/mL]	MIC [4] [µg/mL]	MIC (Ent. aerogenes IFO 12979) [µg/mL]	MIC (Ent. cloacae IFO 13535) [µg/mL]	Structure (SMILES)
≤ 0.006	0.78 (≈ 1.42 µM)	≤ 0.006	0.39 (≈ 0.712 µM)	0.39 (≈ 0.712 µM)	≤ 0.006	0.78 (≈ 1.42 µM)	0.012 (≈ 0.0219 µM)	≤ 0.006	3.13 (≈ 5.71 µM)	0.025 (≈ 0.0456 µM)	≤ 0.006	12.5 (≈ 22.8 µM)	0.2 (≈ 0.365 µM)	≤ 0.006	≤ 0.006	0.1 (≈ 0.182 µM)	0.78 (≈ 1.42 µM)	≤ 0.006	0.05 (≈ 0.0912 µM)	CON=C(C(=O)NC1C(=O)N2C(C(=O)[O-])=C(C[n+]3ccn4c(Cl)ccc4c3)CSC12)c1csc(N)n1 (stereo not drawn) [Ex. 11, 7-β-[(Z)-2-(2-aminothiazol-4-yl)-2-methoxyiminoacetamido]-3-(6-chloropyrrolo[1,2-a]pyrazinium-2-yl)methyl-3-cephem-4-carboxylate]
≤ 0.006	0.78 (≈ 1.52 µM)	≤ 0.006	0.39 (≈ 0.759 µM)	0.1 (≈ 0.195 µM)	≤ 0.006	0.78 (≈ 1.52 µM)	≤ 0.006	≤ 0.006	1.56 (≈ 3.04 µM)	0.025 (≈ 0.0487 µM)	≤ 0.006	25 (≈ 48.7 µM)	0.1 (≈ 0.195 µM)	≤ 0.006	≤ 0.006	0.1 (≈ 0.195 µM)	0.39 (≈ 0.759 µM)	≤ 0.006	0.05 (≈ 0.0974 µM)	CON=C(C(=O)NC1C(=O)N2C(C(=O)[O-])=C(C[n+]3ccn4cccc4c3)CSC12)c1csc(N)n1 (stereo not drawn) [Ex. 1-1, 7-β-[(Z)-2-(2-aminothiazol-4-yl)2-methoxyiminoacetamido]-3-(pyrrolo[1,2a]pyrazinium-2-yl)methyl-3-cephem-4-carboxylate]
0.012 (≈ 0.0197 µM)	0.39 (≈ 0.642 µM)	0.025 (≈ 0.0411 µM)	0.1 (≈ 0.165 µM)	0.2 (≈ 0.329 µM)	≤ 0.006	0.78 (≈ 1.28 µM)	0.012 (≈ 0.0197 µM)	0.012 (≈ 0.0197 µM)	3.13 (≈ 5.15 µM)	0.05 (≈ 0.0823 µM)	≤ 0.006	12.5 (≈ 20.6 µM)	0.1 (≈ 0.165 µM)	≤ 0.006	0.025 (≈ 0.0411 µM)	0.1 (≈ 0.165 µM)	0.78 (≈ 1.28 µM)	0.05 (≈ 0.0823 µM)	0.2 (≈ 0.329 µM)	Nc1nc(C(=NOCF)C(=O)NC2C(=O)N3C(C(=O)[O-])=C(C[n+]4ccn5c(SCCO)ccc5c4)CSC23)cs1 (stereo not drawn) [Ex. 10, 7-β-[(Z)-2-(2-aminothiazol-4-yl)-2-fluoromethoxyiminoacetamido]-3-[6-(2-hydroxyethylthio)pyrrolo[1,2-a]pyrazinium-2-yl]methyl-3-cephem-4-carboxylate]
0.1 (≈ 0.179 µM)	1.56 (≈ 2.79 µM)	0.05 (≈ 0.0895 µM)	1.56 (≈ 2.79 µM)	0.2 (≈ 0.358 µM)	0.012 (≈ 0.0215 µM)	1.56 (≈ 2.79 µM)	0.05 (≈ 0.0895 µM)	0.05 (≈ 0.0895 µM)	3.13 (≈ 5.6 µM)	0.1 (≈ 0.179 µM)	0.025 (≈ 0.0448 µM)	50 (≈ 89.5 µM)	0.78 (≈ 1.4 µM)	0.025 (≈ 0.0448 µM)	0.025 (≈ 0.0448 µM)	0.2 (≈ 0.358 µM)	1.56 (≈ 2.79 µM)	0.025 (≈ 0.0448 µM)	0.1 (≈ 0.179 µM)	CO/N=C(\C(=O)N[C@@H]1C(=O)N2C(C(=O)[O-])=C(C[n+]3ccn4c(C(C)O)ccc4c3)CS[C@H]12)c1nsc(N)n1 (stereo partly drawn) [Ex. 51, 7-β-[(Z)-2-(5-amino-1,2,4-thiadiazol-3-yl)-2-methoxyiminoacetamido]-3-[6-(1-hydroxyethyl)pyrrolo[1,2-a]-pyrazinium-2-yl]methyl-3cephem-4-carboxylate]
